Assay results from PMC6982123 (ACS chemical neuroscience, 2019).
Entries after “also recorded” stand apart in the source; their conditions may differ. Read-outs that look alike come from different tables or passages of the source. Square brackets hold non-standard residues; d marks the D form. Peptide text beside a SMILES is read from it. * marks the point of attachment. ξ: configuration not given here. Aoe(9ξ) = N[C@@H](CCCCCC(=O)C1CO1)C(=O)O; Asu = N[C@@H](CCCCCC(=O)O)C(=O)O; dPip = O=C(O)[C@H]1CCCCN1; NHOH = ON*

Columns and labels:
HDAC1 = HDAC1 (Homo sapiens, UniProt Q13547); test: biochemical; format: biochemical
H3K9ac [1] = test: Histone H3 acetylation Western blot in NPCs; format: cell-based, human
PGRN [2] = test: Intracellular PGRN ELISA in iPSC-derived NPCs; format: cell-based, human; conditions: for Effect on PGRN (1 μM, NPCs) / PGRN induction (in words): 18 h treatment; for Effect on PGRN (1 μM, NPCs): intracellular PGRN; for EC50: Homo sapiens, read-out: EC50 of PGRN induction (dose-response curves); for PGRN induction (in words): Figure 2
HDAC2 = HDAC2 (Homo sapiens, UniProt Q92769); format: biochemical
HDACs 1–3 = test: HDAC inhibition kinetics, summary statement over HDACs 1-3; format: biochemical; conditions: summary over HDACs 1–3 (Tables 1 and S1)
[3] = tested on: human iPSC-derived NPCs and Ngn2 neurons; test: Cellular viability during PGRN experiments; format: cell-based; conditions: 10 μM, 18 h treatment (Figure 2)
[4] = target: HDAC3 in combination with the DAD domain of NCoR2 (Homo sapiens, UniProt O15379); conditions: read-out: Ki HDAC3; cited from earlier work
HDAC6 = conditions: previously reported; cited from earlier work
PGRN [5] = conditions: cited from earlier work
H3K9ac [6] = conditions: treatment at 10 μM; cited from earlier work
[7] = kinetic model from progression curves

Chain of HDAC2 (Q92769 9-376 limits assumed): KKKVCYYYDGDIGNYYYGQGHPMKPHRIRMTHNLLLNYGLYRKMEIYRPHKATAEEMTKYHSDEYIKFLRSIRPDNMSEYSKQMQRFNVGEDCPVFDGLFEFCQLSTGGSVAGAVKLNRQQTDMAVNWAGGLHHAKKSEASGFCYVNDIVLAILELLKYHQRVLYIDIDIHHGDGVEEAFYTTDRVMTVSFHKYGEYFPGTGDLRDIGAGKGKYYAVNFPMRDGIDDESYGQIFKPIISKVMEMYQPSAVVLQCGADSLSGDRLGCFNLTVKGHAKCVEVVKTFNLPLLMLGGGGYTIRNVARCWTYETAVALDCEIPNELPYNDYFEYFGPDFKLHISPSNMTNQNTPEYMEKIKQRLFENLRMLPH
Chain of HDAC1 (Q13547 9-376 limits assumed): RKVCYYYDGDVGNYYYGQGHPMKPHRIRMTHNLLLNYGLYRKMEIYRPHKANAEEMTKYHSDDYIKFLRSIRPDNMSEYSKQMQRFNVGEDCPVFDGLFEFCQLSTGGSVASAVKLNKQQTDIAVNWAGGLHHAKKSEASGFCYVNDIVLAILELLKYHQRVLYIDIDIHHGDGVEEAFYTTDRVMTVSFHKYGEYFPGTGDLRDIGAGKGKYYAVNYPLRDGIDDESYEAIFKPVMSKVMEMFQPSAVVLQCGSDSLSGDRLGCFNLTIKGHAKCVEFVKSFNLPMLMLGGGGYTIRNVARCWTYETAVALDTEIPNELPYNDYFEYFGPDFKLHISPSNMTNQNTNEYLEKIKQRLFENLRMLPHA
Chain of HDAC3 in combination with the DAD domain of NCoR2 (O15379 whole entry, the tested form may be a part): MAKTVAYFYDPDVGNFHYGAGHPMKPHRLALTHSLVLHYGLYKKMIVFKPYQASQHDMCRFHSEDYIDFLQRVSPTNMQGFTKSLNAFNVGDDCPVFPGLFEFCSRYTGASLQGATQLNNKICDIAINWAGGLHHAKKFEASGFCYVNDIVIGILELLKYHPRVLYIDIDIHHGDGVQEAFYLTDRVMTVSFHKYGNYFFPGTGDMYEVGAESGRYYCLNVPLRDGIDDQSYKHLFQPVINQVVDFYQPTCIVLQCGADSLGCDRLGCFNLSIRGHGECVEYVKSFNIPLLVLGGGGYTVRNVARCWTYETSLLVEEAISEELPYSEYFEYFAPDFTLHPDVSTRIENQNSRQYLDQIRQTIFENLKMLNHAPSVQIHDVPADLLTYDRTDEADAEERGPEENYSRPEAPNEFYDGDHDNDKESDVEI
Chain of HDAC3 in combination with the DAD domain of NCoR2 (Q9Y618 395-489 partner limits assumed): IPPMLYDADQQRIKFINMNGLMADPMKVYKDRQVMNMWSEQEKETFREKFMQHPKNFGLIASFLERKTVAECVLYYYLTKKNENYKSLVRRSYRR

Compound	Mechanism of binding HDAC1 (HDAC1; [7])	Effect on H3K9ac (1 μM, NPCs) (H3K9ac [1]; NPCs, 18 h treatment)	Effect on PGRN (1 μM, NPCs) (PGRN [2]; NPCs)	EC50 (PGRN [2]; 18 h)	PGRN induction (in words) (PGRN [2]; NPCs)	Mechanism of binding HDAC2 (HDAC2; [7])	dissociative half-life (dis. t½) (HDACs 1–3)	other results
O=C(CCCCC[C@@H]1NC(=O)[C@H]2CCCCN2C(=O)[C@H](Cc2ccccc2)NC(=O)[C@H](Cc2ccccc2)NC1=O)C1CO1 (stereo partly shown) [Compound 6, trapoxin A] (cyclo(FF[dPip][Aoe(9ξ)]))	mechanism A kinetics	~5.0 fold incr.	~2.4 fold incr.	22 ± 1 nM	substantial increase in PGRN	mechanism A kinetics		Ki (HDAC1): ~0.003 nM
Cc1[nH]c2ccccc2c1CCNCc1ccc(/C=C/C(=O)NO)cc1 [Compound 5, panobinostat]		~36 fold incr.	~2.3 fold incr.	200 ± 10 nM		slow, tight-binding inhibition profiles (mechanism B); also recorded: effectively irreversible behavior	over 20 min	
C/C=C1\NC(=O)[C@H]2CSSCC/C=C/[C@H](CC(=O)N[C@H](C(C)C)C(=O)N2)OC(=O)[C@H](C(C)C)NC1=O [Compound 10, romidepsin]	slow, tight-binding (mechanism B)	~2.3 fold incr.	~4.1 fold incr.		substantial increase in PGRN		over 20 min	Ki (HDAC1): ~0.02 nM; Cellular viability [3]: impaired cellular viability
O=C(CCCCC[C@@H]1NC(=O)[C@H]2CCCN2C(=O)[C@H](Cc2ccccc2)NC(=O)[C@H](Cc2ccccc2)NC1=O)NO [Compound 7c, TpxB^Asuha] (cyclo([Asu](NHOH)FF[dP]))		~6.3 fold incr.	~2.2 fold incr.		substantial increase in PGRN		over 20 min	Ki [4]: ~0.02 nM
C[C@@H]1NC(=O)[C@H]2CCCN2C(=O)[C@H](CCCCCC(=O)[C@@H]2CO2)NC(=O)[C@@H](C)NC1=O [Compound S2, HC-toxin]								Mechanism of binding HDAC6 (HDAC6): fast-on/fast-off kinetics
O=C(CCCCCCC(=O)C(F)(F)F)Nc1ccccc1 [Compound 2, SATK]		No change	No change		not able to affect PGRN production			
CC(=O)Nc1ccc(C(=O)Nc2cc(-c3cccs3)ccc2N)cc1 [Compound 4, Cpd-60]								PGRN induction (in words) (PGRN [5]; human neuronal cell culture): not able to affect PGRN production
CC(=O)Nc1ccc(C(=O)Nc2ccccc2N)cc1 [Compound 3, tacedinaline]	mechanism B type of slow-binding inhibition			> 20000 nM	not able to affect PGRN production			Intensity of histone marks (H3 acetylation at K9 and K27) (H3K9ac [1]; Western blot, 18 h treatment, Figure 3 and S7): levels comparable to panobinostat; Effect on H3K9ac (NPCs) (H3K9ac [1]; treatment at 10 μM, NPCs, 18 h): ~18 fold incr^‡; Effect on PGRN (NPCs) (PGRN [2]; treatment at 10 μM, NPCs, 18 h): Decrease^‡; Mechanism of binding HDAC2 (HDAC2): mechanism B type of slow-binding inhibition
O=C(CCCCCCC(=O)Nc1ccccc1)NO [Compound 1, SAHA]								Effect on PGRN (NPCs) (PGRN [5]; treatment at 10 μM): >2 fold incr.‡, [10]; Effect on H3K9ac (NPCs) (H3K9ac [6]): >20 fold incr.‡, [10]
trichostatin A [Compound S1]	slow, tight-binding inhibition profiles (mechanism B)					slow, tight-binding inhibition profiles (mechanism B)	over 20 min	
CCC(=O)CCCCC[C@@H]1NC(=O)[C@H]2CCCCN2C(=O)[C@H]([C@@H](C)CC)NC(=O)[C@H](Cc2cn(OC)c3ccccc23)NC1=O [Compound 8a, apicidin]		~3.3 fold incr.	~1.7 fold incr.	790 ± 20 nM		fast-on/fast-off binding kinetics		Mechanism of binding HDAC1 (HDAC1): fast-on/fast-off binding kinetics
